Assay results taken from patent publication US11298348B2, “Combination treatment of sarcoglycanopathies” (INSERM (INSTITUT NATIONAL DE LA SANTE ET DE LA RECHERCHE …, priority 2018, dated 2022).

Legend:
[1] = molecular target: T1, R77C-α-SG (Homo sapiens, UniProt Q16586, R77C); assay: Western blot and densitometry of α-SG content in βγδ-cells transiently expressing R77C-α-SG; type: cell-based; details: single corrector, C17 10 μM or C4 5 μM, 24 hours
T1 construct: The full-length cDNA encoding human α-sarcoglycan cloned in the pcDNA3 mammalian expression vector; expressed in transfected cells; host or cells: βγδ-cells (HER911 cells stably expressing β-, γ- and δ-sarcoglycan)
T1 sequence (Q16586 24-387 R77C): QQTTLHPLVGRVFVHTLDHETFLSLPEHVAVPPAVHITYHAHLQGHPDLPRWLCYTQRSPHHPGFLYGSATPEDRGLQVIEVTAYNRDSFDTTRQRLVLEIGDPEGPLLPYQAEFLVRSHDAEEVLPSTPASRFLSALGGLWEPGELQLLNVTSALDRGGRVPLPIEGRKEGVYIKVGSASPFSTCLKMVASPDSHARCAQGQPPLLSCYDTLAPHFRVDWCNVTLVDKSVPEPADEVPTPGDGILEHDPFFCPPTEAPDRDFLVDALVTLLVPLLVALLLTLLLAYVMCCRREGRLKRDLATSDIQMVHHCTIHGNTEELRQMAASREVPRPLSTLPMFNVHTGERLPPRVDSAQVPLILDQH
Protocol: (§1) For transient expression, HEK 293 cells were seeded at 50,000 cells/cm2 and transfected the day after with Transit293 (MirusBio) according to manufacturer's instruction. Twenty-four hours after transfection, medium was replaced with DMEM supplemented with 2% FBS containing the indicated concentration of correctors (dissolved in DMSO) or with DMSO alone (final DMSO concentration 0.1%). HER911 or βγδ-cells cells were seeded at 50,000 cells/cm2 and transfected the day after with 9 μl of Fugene HD Transfection Reagent (E2312 from Promega) and 3 μg of plasmid coding for wild type or mutated α-SG. MG132 was added 8 hours before cell lysis, CFTR correctors were added 24 hours before cell lysis or IF assay (transfected HEK293, V247M cells, HER911 and βγδ-cells) and 24-96 hours before myotubes lysis, treatment with CHX or IF assay.
After treatments, cells were washed twice with ice cold PBS and lysed with 5% sodium deoxycholate supplemented with complete protease inhibitor (Sigma-Aldrich).
Protein lysates were quantified by the bicinchoninic-acid protein assay kit (Thermo Scientific), according to manufacturer's instructions. […] After 1-hour incubation with donkey anti-rabbit IRDye680 and anti-mouse IRDye800 antibodies (EuroBio) at room temperature, proteins were detected by fluorescence in an Odissey imaging system (Li-Cor) following the manufacturer's instructions. […]

[2] = molecular target: T1, R77C-α-SG; assay: Immunofluorescence of membrane α-SG in intact βγδ-cells expressing R77C-α-SG (confocal, ImageXpress); type: cell-based; details: single corrector, 24 hours
Protocol: as §1
Immunofluorescence-confocal analyses were performed either in intact cells (not permeabilized) or in permeabilized cells. For the former condition, cells, grown on polylysine-treated glasses, at the end of treatments were incubated for 30 minutes at 4° C., then gently washed twice with ice-cold PBS and incubated with primary antibodies for 5 hours at 4° C. […]
Quantification of the mean fluorescence intensity of membrane staining of […] transfected with R77C-α-SG was performed by using ImageXpress microscope system (Molecular Devices). […]

Structure (SMILES) | R77C-α-SG protein content [1] | localization of rescued R77C-α-SG at the plasma membrane (confocal IF, not-permeabilized cells) [2]
COc1ccc(Cl)cc1Nc1nc(-c2sc(NC(=O)C(C)(C)C)nc2C)cs1 [C17, N-(2-(5-chloro-2-methoxyphenylamino)-4′-methyl-4,5′-bithiazol-2′-yl)pivalamide] | three to four-fold increase | intense cell-surface staining
COc1ccc(Cl)cc1Nc1nc(-c2sc(NC(=O)c3ccccc3)nc2C)cs1 [C4, N-[2-(5-Chloro-2-methoxy-phenylamino)-4′-methyl-[4,5′]bithiazolyl-2′-yl]-benzamide] | three to four-fold increase | intense cell-surface staining
